Assay results: US20170246137A1, “SULFESTROL FOR TREATING CANCER” (CHAMAELEO PHARMA BVBA, priority 2012, published 2017)

Legend:
[1] = system: prostate cancer cells; conditions: cited from earlier work
[2] = system: MDA-MB-231; assay: In vitro direct cytotoxicity, Cell titer Blue viability, 72 hrs; conditions: MDA-MB231
Experimental: (§1) Cells were maintained in vitro in RPMI 1640 containing 10% (v/v) heat inactivated FBS and 2 mM L-glutamine (growth media) at 37° C. in 5% CO2 and humidified conditions. Cells were harvested, washed, resuspended into growth medium and counted. The cells were re-suspended into assay media (RPMI 1640+1% (v/v) heat inactivated FBS+ and 2 mM L-glutamine) at 0.5-1×10^5 cells/ml (dependent upon cell type) and plated into 96-well assay plates (Corning, black-wall plates) in 50 ul/well aliquots.
(§2) Plates were incubated overnight at 37° C. in 5% humidified CO2 prior to addition of the compounds. […] Stocks of all compounds were then serially diluted. Final concentrations to which cells were exposed were 300, 150, 75, 37.5, 18.75, 9.4, 4.7, 2.3, 1.2, 0.6 μM. Positive control was Cisplatin. Cisplatin was diluted in 1% FBS media to give a stock concentration of 1 mM. Cisplatin stock was then serially diluted. Final concentrations to which cells were exposed were 100, 50, 25, 12.5, 6.3, 3.1, 1.6, 0.8, 0.4, 0.2 μM.
(§3) Plates were incubated for 72 hrs at 37° C. in 5% humidified CO2 after addition of the compounds. Viability of the cells was assessed with the Cell titer Blue™ (Promega) assay. 10 μl of Cell titer Blue™ reagents was added to each test/blank well. Plates were incubated 3 h at 37° C. in 5% humidified CO2 prior to analysis. Fluorescence was measured with a Flex II station plate reader. Excitation wavelength was 570 nm, emission wave length was 600 nm, cut off was 590 nm. Raw data was processed by GraphPad Prism to calculate mean, standard deviation and IC50 values.

[3] = system: MCF7; assay: as above; conditions: MCF7
Experimental: as §1, §2, §3

[4] = system: MCF-7 breast cancer cells; conditions: cited from earlier work
[5] = system: DU-145 prostate cancer cells; conditions: cited from earlier work
[6] = system: LNCaP; assay: In vitro direct cytotoxicity, Cell titer Blue viability, 72 hrs; type: cell-based
Experimental: (§4) Cells were harvested, washed, re-suspended into growth medium and counted.
(§5) Stocks of all compounds were then serially diluted. […] Positive control was Taxotere. Taxotere was diluted in 100% DSMO to give a stock concentration of 1 mM. Stock was serially diluted. Final concentrations to which cells were exposed were 1000, 333.3, 111.1, 37.0, 12.3, 4.1, 1.4, 0.5, and 0.2 nM.

[7] = system: DU-145; assay: as above; type: cell-based
Experimental: as §4, §5

[8] = Estrogenic activity: body weight and plasma cholesterol levels; type: in vivo, male Sprague-Dawley rats; conditions: for Mean bodyweight: in g (unit assumed)
Experimental: Estrogenic activity was determined by measuring body weight and plasma cholesterol levels.
Each animal was dosed three times a day with vehicle or test compound (1st dose 7:30-8:00, 2nd dose 12:30-13:00, 3rd dose 17:00-17:30) for 14 consecutive days.
After 14 days treatment, blood was collected from the animals via cardiac puncture 4 hrs past final dosing to analyze plasma cholesterol levels. The blood was immediately transferred to a tube containing 0.5M EDTA anticoagulant. It was mixed gently and centrifuged at 1000×g at 4° C. for 15 min. Plasma was aspirated from the centrifuged blood samples, quick frozen on dry ice and stored at −80° C. for later use.
Plasma cholesterol levels were determined using a commercial ELISA kit obtained from NovaTeinBio (BG-RAT11262). Standard protocol accompanied by the kit was used without any adjustments.

[9] = system: platelet-rich plasma (PRP); assay: Platelet-aggregation-inducing effects in platelet-rich plasma, absorbance 630 nm; type: cell-based; conditions: 7 minutes, human PRP
Experimental: Blood necessary to generate PRP was obtained from 4 healthy human volunteers. 100 ml of fresh venous blood from each donor was isolated directly into tubes containing 1/10th volume of the anti-coagulant Tri-Sodium Citrate (3.2% w/v). The blood and anti-coagulant were immediately mixed and the final concentration of Tri-Sodium Citrate was 0.0106 M.
PRP was prepared by centrifugation of anti-coagulated blood at 180 g for 10 minutes at room temperature. The cloudy yellow supernatant containing the platelets was removed and placed into a clean polypropylene tube. Platelet-poor plasma (PPP) was prepared by centrifuging the remaining sample at 1,200 g for 20 minutes at room temperature. The PRP was adjusted to a suitable platelet count and absorbance at 630 nm by addition of PPP.
All three compounds were dissolved in 100% DMSO to give a stock concentration of 60 mM. […] […] 100 nM gamma thrombin (Cambridge bioscience) was used as control for platelet aggregation. 90 μl aliquots of PRP were added to 96 wells plates. A baseline absorbance reading was taken at 630 nm. 5 μl of the compounds and gamma thrombin control was added to the appropriate PRP.
The plates were incubated at room temperature for 7 minutes on a plate shaker with continuous shaking. A second A630 nm reading was made after the 7 minutes incubation to measure any platelet aggregation induced by the compounds.

[10] = In vitro metabolism in human liver microsomes (STS and CYP); type: in vitro ADME; conditions: for Contribution to metabolism / half-life at 5 μM / Half-life: 5 μM; for half-life at 5 μM: human, liver microsomes
Experimental: In vitro metabolism pathways of DES, Mono-Sulfestrol and Di-Sulfestrol in human liver microsomes were investigated.
Special emphasis was put on desulfatation by steroid sulfatase (STS) and oxidation by cytochrome P (CYP) metabolism. Liver microsomes (Celsis in vitro Technologies) were used at a concentration of 0.5 mg/ml in a volume of 600 μl phosphate buffer pH 7.4. Estrone-3-sulfate was used as positive control.
5 μM of each compound (test and control compound) was added to the liver microsomes and the mixture was incubated at 37° C. for 5, 10, 20, 30, 50, 90 and 120 minutes. After incubation, aliquots of 45 μl were taken which were subsequently quenched with 150 μl ice cold methanol. Aliquots were incubated ≧1 h at −20° C. for protein precipitation. After precipitation, samples were centrifuged and remaining supernatant was used for analysis with LC-MS/MS. Half life of the compounds, speed of metabolism or intrinsic clearance (Clint), and contribution to metabolism of CYP and STS metabolism were calculated based on the data obtained at each time point.

[11] = patients suffering from prostate cancer, 5 mg p.o. per day; cited from earlier work
[12] = + NADPH + 667-Coumate (STS inactive, CYP active)
[13] = nothing added (STS active, CYP inactive)

In the case of `CC/C(=C(/CC)c1ccc(O)cc1)c1ccc(O)cc1` [DES, diethylstilbestrol, reference compound], the “concentrations that do not influence prostate cancer cell growth” value [1] is listed as “up to 100 ng/ml”, the “minimal concentration to induce cytotoxic effects” value [1] is listed as 1 µg/mL and the “cytotoxicity in vitro (in words)” value [2] is listed as “cytotoxic”. For the same compound, the “cytotoxicity in vitro (in words)” value [3] was “cytotoxic”, the “effect on cell growth in vitro (in words)” value [4] was “reduced cell growth in vitro” and the “cytotoxic effects (in words)” value [5] was “cytotoxic effects”. For the same compound, the “cytotoxicity in vitro (in words)” value [6] was “cytotoxic”, the “cytotoxicity in vitro (in words)” value ([7]; DU-145) was “cytotoxic” and the Mean bodyweight ([8]; Day 0, DES 1.5 mg/kg per day, Di-Sulfestrol 3 mg/kg per day, three doses a day) was 382 ± 7.8. For the same compound, the Mean bodyweight ([8]; Day 2) was 379 ± 9.3, the Mean bodyweight ([8]; Day 4) was 361 ± 8.6 and the Mean bodyweight ([8]; Day 6) was 350 ± 8.0. For the same compound, the Mean bodyweight ([8]; Day 8) was 342 ± 8.0, the Mean bodyweight ([8]; Day 10) was 341 ± 7.8 and the Mean bodyweight ([8]; Day 12) was 337 ± 8.4. The Mean bodyweight ([8]; Day 14) was 339 ± 9.80, the “Cholesterol (plasma)” value ([8]; after 14 days treatment, 4 hrs past final dosing, DES 1.5 mg/kg per day, Di-Sulfestrol 3 mg/kg per day) was 14.9 ± 0.724 nmol/L and the “estrogenic activity in rats (in words)” value ([8]; lowering body weight and cholesterol levels) was “show estrogenic activity”. The “Absorbance (630 nm)” value ([9]; 2.3 μM, high absorbance = low aggregation) was 0.264 ± 0.030, the “Absorbance (630 nm)” value ([9]; 4.7 μM) was 0.266 ± 0.031 and the “Absorbance (630 nm)” value ([9]; 9.4 μM) was 0.264 ± 0.030. For the same compound, the “Absorbance (630 nm)” value ([9]; 18.75 μM) was 0.264 ± 0.030, the “Absorbance (630 nm)” value ([9]; 37.5 μM) was 0.264 ± 0.030 and the “Absorbance (630 nm)” value ([9]; 75 μM) was 0.268 ± 0.032. For the same compound, the “Absorbance (630 nm)” value ([9]; 150 μM) was 0.263 ± 0.033, the “metabolism pathway in human liver microsomes (in words)” value [10] was “only processed by CYP metabolism” and the Contribution to metabolism [10, 12] was 131%. It also gave a half-life at 5 μM ([10]; pH 7.4, + NADPH (STS and CYP active)) of 18 min, a half-life at 5 μM ([10]; pH 7.4, nothing added (STS active, CYP inactive)) of 194 min and a half-life at 5 μM ([10]; pH 7.4, with 667-Coumate (STS inhibitor; concentration not stated), + NADPH + 667-Coumate (STS inactive, CYP active)) of 14 min. The Contribution to metabolism [10, 13] was 9% and the “increase of non-cancer related deaths, mostly cardiovascular” value [11] was 36%.

In the case of `CC(=O)O[C@@]12CO[C@@H]1C[C@H](O)[C@@]1(C)C(=O)[C@H](O)C3=C(C)[C@@H](OC(=O)[C@H](O)[C@@H](NC(=O)OC(C)(C)C)c4ccccc4)C[C@@](O)([C@@H](OC(=O)c4ccccc4)[C@H]21)C3(C)C` [Taxotere, reference compound], the IC50 ([6]; Homo sapiens, hormone-dependent prostate cancer cell line, 72 hrs) is reported as 2 nM and the IC50 ([7]; Homo sapiens, DU-145, hormone-independent prostate cancer cell line, 72 hrs) is reported as 4 nM.

In the case of `C[C@]12CC[C@@H]3c4ccc(OS(=O)(=O)O)cc4CC[C@H]3[C@@H]1CCC2=O` [E-3-S, Estrone-3-sulfate], the Contribution to metabolism [10, 12] is reported as 19%, the Half-life [10, 12] is reported as 62 min and the Contribution to metabolism [10, 13] is reported as 44%. For the same compound, the Half-life [10, 13] was 27 min.
